Entries after “also recorded” stand apart in the source; their conditions may differ.
Experiments:
[1] = system: KYSE-70; experiment: MTT cytotoxicity assay, KYSE-70; assay type: cell-based, Human; conditions: KYSE-70, highest concentration of 50 μg/mL, 48 hours
Experimental: (§1) In this invention, compound 1 was dissolved in dimethyl sulfoxide (DMSO) to make stock solutions and further diluted in culture medium for this experiment. Human esophagus carcinoma cancer cell lines (KYSE-70, KYSE-150, KYSE-450 and KYSE-520) were cultured in RPMI 1640 or DMEM medium, containing 10% fetal bovine serum and 1% antibiotics (Penicillin and strep). The cell lines were cultured at 37° C. in a humidified environment containing 5% CO2. A standard colorimetric MTT assay was used to determine the cell viability. Cells were seeded in a 96-well plate (3×10^3 cells/well) and allowed to attach to the plate overnight. After the recovery, cells were treated with various concentrations of compound 1 or the crude extract (1.56, 3.125, 6.25, 12.5, 25, 50 μg/mL) for 48 hours. Then, 20 μL of MTT (5 mg/mL stock in PBS) per well was added into the medium (200 μL) and incubated for 4 hours at 37° C. Finally, the culture medium was removed and 200 μL of DMSO were added. Absorbance of the solution was measured using a microplate reader spectrophotometer (Bio-Rad Laboratories, Inc., Hercules, Calif.) at a wavelength of 570 nm.

[2] = system: KYSE-150; experiment: MTT cytotoxicity assay, KYSE-150; assay type: cell-based, Human; conditions: KYSE-150, highest concentration of 50 μg/mL, 48 hours
Experimental: as §1

[3] = system: KYSE-450; experiment: MTT cytotoxicity assay, KYSE-450; assay type: cell-based, Human; conditions: KYSE-450, highest concentration of 50 μg/mL, 48 hours
Experimental: as §1

[4] = system: KYSE-520; experiment: MTT cytotoxicity assay, KYSE-520; assay type: cell-based, Human; conditions: KYSE-520, highest concentration of 50 μg/mL, 48 hours
Experimental: as §1

[5] = system: KYSE-150 cells; experiment: Wound healing assay; assay type: cell-based, human; conditions: KYSE-150, 50 μg/mL, after 72 hours, vs control
Experimental: Cells were seeded in 12 wells plate at 30% confluence by scoring with a sterile plastic tip (1 mL), then washed several times with medium to remove cell debris and then incubated in the conditioned medium in the absence or presence of compound 1 at 50 μg/mL for various periods of time up to 72 hours. Cell migration into the wound surface was monitored by Olympus IX71 microscopy and digitally photographed.
To further examine the inhibitory effect of compound 1 on the migratory activity of cancer cell, a confluent monolayer of KYSE-150 cells was scratched to form a wound and incubated in the absence or presence of compound 1 (50 μg/mL) as compared to that of controls.

[6] = system: KYSE-150 cells; experiment: Tumor xenograft mouse model; assay type: in vivo, Balb/c nude mice; conditions: 15 and 30 mg/kg/day intraperitoneal, 12 days, vs saline control
Experimental: Six to eight-week-old female Balb/c nude weighing between 16-20 g were bred in 12 h day/night cycle environment with free access to food and water. 2×10^6 KYSE-150 cells per […] saline were injected subcutaneously into the flanks of the mice. When the tumor volume reached about 100 mm^3, the mice were randomly divided into three groups (n=5) as followed: (i) a control group: administered with saline; (ii) a low dosage group: administered with compound 1 at 15 mg/kg/day by intraperitoneal injection; (iii) a high dosage group, administered with compound 1 at 30 mg/kg/day by intraperitoneal injection. Tumor volumes were calculated with calipers every two days according to the formula: Volume=(width)^2×length/2. After 12 days observation, mice were killed to remove the tumor. Then the samples were fixed in 4% paraformaldehyde and embedded in paraffin. Five-micro-meter sections were stained with hematoxylin/eosin according to a standard procedure. The protocol was approved by the committee for Care of Laboratory Animals in the School of Chinese Medicine at the Hong Kong Baptist University.

## COc1cc(-c2oc3cc(O)cc(O)c3c(=O)c2OC2OC(COC3OC(C)C(O)C(O)C3O)C(O)C(O)C2O)ccc1O (stereo not drawn) [compound 1]
[1]
  Cytotoxicity (cell viability): no cytotoxicity was observed
[2]
  Cytotoxicity (cell viability): cells viability was not altered; also recorded: no cytotoxicity was observed
[3]
  Cytotoxicity (cell viability): no cytotoxicity was observed
[4]
  Cytotoxicity (cell viability): no cytotoxicity was observed
[5]
  Cell migration: significantly inhibited the cell migration
[6]
  Body weight: significantly reduced
  H&E staining of tumor tissue: massive necrotizing tissue
  Tumor growth (tumor volume): significantly reduced
  Tumor weight: significantly reduced tumor weight

Source: US9655913B2, “Anti-esophageal cancer compound and method of use thereof” (Hong Kong Baptist University, priority 2015, dated 2017)
